In article PMC10458858, “Phytochemical Investigation of Lepionurus sylvestris Blume and Their Anti-Diabetes Effects via Anti-Alpha Glucosidase and Insulin Secretagogue Activities Plus Molecular Docking” (Pharmaceuticals, 2023):
“And” between values parts separate entries of the source, which are not always exact repeats. Equal entries are not always repeated. Where two headings read alike, the source gives them in different places.

What was measured:
alpha glucosidase enzyme = alpha glucosidase enzyme (Saccharomyces cerevisiae, UniProt P53341); assay: Anti-alpha glucosidase activity and mechanism of action (Michaelis–Menten, Lineweaver–Burk plots); assay type: biochemical; details: for inhibition at 400 µg/mL: read-out: Alpha Glucosidase Inhibition at 400 μg/mL
Sequence of alpha glucosidase enzyme (P53341 whole entry): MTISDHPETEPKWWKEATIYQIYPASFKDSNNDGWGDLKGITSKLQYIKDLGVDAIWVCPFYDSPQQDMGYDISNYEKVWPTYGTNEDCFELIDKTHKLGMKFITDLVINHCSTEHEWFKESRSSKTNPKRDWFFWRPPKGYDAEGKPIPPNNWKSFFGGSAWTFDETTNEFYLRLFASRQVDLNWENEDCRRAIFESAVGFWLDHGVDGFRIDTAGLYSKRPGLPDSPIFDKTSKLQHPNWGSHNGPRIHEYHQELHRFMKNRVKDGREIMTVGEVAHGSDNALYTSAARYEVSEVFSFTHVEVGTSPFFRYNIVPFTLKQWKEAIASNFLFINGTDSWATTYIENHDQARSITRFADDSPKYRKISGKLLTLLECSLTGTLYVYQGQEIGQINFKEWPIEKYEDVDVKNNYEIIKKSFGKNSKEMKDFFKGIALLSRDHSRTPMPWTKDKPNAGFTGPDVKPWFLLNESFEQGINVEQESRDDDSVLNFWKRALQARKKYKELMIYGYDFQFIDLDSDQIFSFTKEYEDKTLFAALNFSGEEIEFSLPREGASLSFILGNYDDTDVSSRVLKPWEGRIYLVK
Method: The anti-alpha glucosidase activity was determined by following Phoopha et al.’s method. […] The reaction was prepared using a phosphate buffer (pH 7.0), sample (was dissolved in DMSO), […] as substrate, and alpha glucosidase enzyme solution. The test was evaluated by measuring the velocity of the reaction per minute.

in vitro [1] = assay type: cell-based, human; details: human; 25 µg/mL, 72 h, SRB; read-out: Cytotoxic Effect at 25 µg/mL (% Inhibition) ± SD, A549
Method: (§1) The toxicity in human cancer cells was tested on a human breast carcinoma cell line (MCF-7), human cervix adenocarcinoma cell line (HeLa), and human lung carcinoma cell line (A549), which were compared to a human gingival fibroblast cell line (HGF) as the normal cells. These cells were cultured in DMEM liquid medium, supporting supplementary nutrients for cell culture. […] A sulforhodamine B assay was used to evaluate the cytotoxic effects of the samples, following a previous report [19]. In brief, the cancer cells were seeded into 96-well plates at 5 × 10^3 cells and incubated for 24 h. Later, we added the test samples at the final concentration of 25 μg/mL and left the experiment in the incubator for 72 h. After that, the cancer cells were fixed with cold 10% trichloro acetic acid for an hour and then we washed the acid with water. The dried plate was dyed with 0.4% SRB in 1% acetic acid for 30 min, and we washed the color with 1% acetic acid 4 times. The SRB color was dissolved in the cancer cells by adding 10 mM tris-base and measuring with a microplate reader at 492 nm.

in vitro [2] = assay type: cell-based, human; details: human; 25 µg/mL, 72 h, SRB; read-out: Cytotoxic Effect at 25 µg/mL (% Inhibition) ± SD, HeLa
Method: as §1

in vitro [3] = details: human
Method: as §1

in vitro [4] = assay type: cell-based, human; details: human; 25 µg/mL, 72 h, SRB; read-out: Cytotoxic Effect at 25 µg/mL (% Inhibition) ± SD, MCF-7
Method: as §1

[5] = system: insulin-secreting rat insulinoma (INS-1E) cells; assay: Insulin secretagogue activity (ELISA); assay type: cell-based; details: 100 μg/mL, 24 h
Method: The experiment was slightly modified from previous reports. In brief, the insulin secretion was determined by testing insulin-secreting rat insulinoma (INS-1E) cells, supported by Prof. Dr. Michael Wink, Institute of Pharmacy and Molecular Biotechnology (IPMB), University of Heidelberg, Germany. The cells were cultured in RPMI-1640 liquid medium and supplementary nutrients for cell culture under the condition of a 37 °C humidified incubator containing 5% CO2. The cells were seeded into 24-well plates at 2 × 10^5 cells. Later, the cells were treated with glucose-free culture media to stop energy consumption in the cell metabolism. Afterward, the minimum concentration of glucose in RPMI-1640 was added to the samples for 24 h. Finally, the insulin secretion was measured for insulin releasing by ELISA technique.

[6] = system: A549 (human lung adenocarcinoma); assay: in vitro; assay type: cell-based
Method: as §1

[7] = system: Hela (human cervix adenocarcinoma); assay: in vitro; assay type: cell-based
Method: as §1

[8] = system: HGF (human gingival fibroblast)
Method: as §1

[9] = system: MCF-7 (human breast adenocarcinoma); assay: in vitro; assay type: cell-based
Method: as §1

[10] = 400 μg/mL, isolated compounds panel
[11] = control 2.5 mM glucose in RPMI-1640

C[C@H]1O[C@H](O[C@H]2[C@H](O)[C@@H](O)[C@@H](O[C@H]3[C@H](O)[C@@H](O)C(O)O[C@@H]3CO)O[C@@H]2CO)[C@H](O)[C@@H](O)[C@@H]1N[C@H]1C=C(CO)[C@@H](O)[C@H](O)[C@H]1O (stereo partly drawn) [Acarbose, reference compound]
Alpha Glucosidase Inhibition at 400 μg/mL (alpha glucosidase enzyme; [10]): 62.14 ± 0.37
Alpha Glucosidase Inhibition at 2 mg/mL (alpha glucosidase enzyme; 2 mg/mL, extracts panel): 88.18 ± 0.53%
mechanism of enzyme inhibition (alpha glucosidase enzyme; Michaelis–Menten and Lineweaver–Burk kinetic plots): competitive

CC[C@@]1(O)C(=O)OCc2c1cc1n(c2=O)Cc2cc3ccccc3nc2-1 [Camptothecin, reference compound]
inhibition at 72 h, 25 µg/mL (in vitro [1]): 87.7 ± 1.78%
inhibition at 72 h, 25 µg/mL (in vitro [2]): 85.2 ± 1.23%
inhibition at 72 h, 25 µg/mL (in vitro [3]): 7.35 ± 1.34%
inhibition at 72 h, 25 µg/mL (in vitro [4]): 92.95 ± 0.33%

OCC(O)COCC(O)CO (stereo not drawn) [Diglycerol]
inhibition at 400 µg/mL (alpha glucosidase enzyme; [10]): 6.23 ± 1.84%
total insulin secretion (insulin concentration) [5, 11]: 102.2139 µg/L
total insulin secretion (insulin concentration) ([5]; control 2.5 mM glucose in RPMI-1640, listed as diglycerol): 102.21 µg/L

CC(C)[C@@H](C)/C=C/[C@@H](C)[C@H]1CC[C@H]2C3=CC=C4C[C@@H](O)CC[C@]4(C)[C@H]3CC[C@]12C [Ergosterol]
inhibition at 400 µg/mL (alpha glucosidase enzyme): 18.6 ± 1.42%
total insulin secretion (insulin concentration) [5, 11]: 102.4525 µg/L
total insulin secretion (insulin concentration) ([5]; control 2.5 mM glucose in RPMI-1640, listed as ergosterol): 102.45 µg/L

COc1ccc(Cl)cc1C(=O)NCCc1ccc(S(=O)(=O)NC(=O)NC2CCCCC2)cc1 [Glibenclamide, reference compound]
total insulin secretion (insulin concentration) [5, 11]: 104.57 µg/L and 104.5722 µg/L

Cc1c(O)c(C(=O)CCc2ccccc2)c2oc(=O)cc(-c3ccccc3)c2c1O [Interruptin A]
inhibition at 400 µg/mL (alpha glucosidase enzyme; [10]): 30.3 ± 1.17%
total insulin secretion (insulin concentration) [5, 11]: 102.52 µg/L and 102.5228 µg/L

Cc1c(O)c(C(=O)C(O)Cc2ccccc2)c2oc(=O)cc(-c3ccccc3)c2c1O (stereo not drawn) [Interruptin C]
inhibition at 400 µg/mL (alpha glucosidase enzyme; [10]): 58.2 ± 0.83%
total insulin secretion (insulin concentration) [5, 11]: 102.0534 µg/L
total insulin secretion (insulin concentration) ([5]; control 2.5 mM glucose in RPMI-1640, listed as interruptin C): 102.05 µg/L

C=C1CC23COC(=O)C2=CCC[C@@H]3[C@@H]2C[C@H](c3ccoc3)OC(=O)[C@H]12 (stereo partly drawn) [The new diterpene (Lepionurodiolide), 15-16-epoxy-neo-cleoda-3,7(20),13(16),14-tetraene-12,17:18,19-diolide]
inhibition at 400 µg/mL (alpha glucosidase enzyme; [10]): 58.48 ± 0.48%
total insulin secretion (insulin concentration) ([5]; control 2.5 mM glucose in RPMI-1640, listed as The new diterpene): 52.0566 µg/L
total insulin secretion (insulin concentration) ([5]; control 2.5 mM glucose in RPMI-1640, listed as the new diterpene compound): 52.06 µg/L

Hexane
Cytotoxic Effect at 25 µg/mL (% Inhibition) ± SD, A549 [6]: 15.40 ± 2.75%
Cytotoxic Effect at 25 µg/mL (% Inhibition) ± SD, HeLa [7]: 83.89 ± 4.31%
Cytotoxic Effect at 25 µg/mL (% Inhibition) ± SD, HGF [8]: 48.23 ± 2.96%
cytotoxicity category on HGF cells [8]: moderate (key: non-cytotoxic: cell viability above 80%; weak: 80–60%; moderate: 60–40%; strong: below 40%)
Cytotoxic Effect at 25 µg/mL (% Inhibition) ± SD, MCF-7 [9]: 53.54 ± 1.81%
